Data taken from patent publication US20260166039A1 (SCHRÖDINGER, INC., priority 2022, published 2026).

Target: T1, Wee1 kinase domain (Homo sapiens, UniProt P30291)
T1 construct: Wee1 kinase domain was purchased from Carna (catalog #05-177); purchased Carna 05-177
Assay: Wee1 Kinase Biochemical Assay (ADP-Glo)
Conditions: 15 uM ATP
Protocol: Wee1 Kinase Biochemical Assay Protocol
Wee1 kinase domain was purchased from Carna (catalog #05-177). Wee1 kinase activity was determined with Poly(Lys,Tyr 4:1) hydrobromide as a substrate (Sigma-Aldrich) and by measuring ADP production using the ADP-Glo Kinase Assay kit (Promega) following the manufacturer's instructions. The kinase reaction was performed using the following conditions:
Buffer: 40 mM Tris-HCl, 20 mM magnesium chloride, supplemented with 0.1 mg/mL bovine serum albumin and 2 mM DTT. The final reaction mix contained 1 nM Wee1 enzyme, 15 uM ATP, and 2 ng/mL Poly(Lys,Tyr 4:1) hydrobromide substrate. The reaction time was 4 hours at 25° C.
The ADP-Glo signal was measured using the Envision plate reader and the percentage inhibition of kinase activity calculated for each inhibitor tested. Percent inhibition of Wee1 kinase activity was calculated based on the following formula.
[formula] • SSample: the signal of compounds • SHigh Ctrl: the signal of high control (DMSO) • SLow Ctrl: the signal of low control (positive control Wee1 inhibitor at saturating concentration)

[1] = class symbols, 1 nM Wee1 enzyme, 4 hours at 25° C.

T1 sequence (P30291 299-569 limits assumed): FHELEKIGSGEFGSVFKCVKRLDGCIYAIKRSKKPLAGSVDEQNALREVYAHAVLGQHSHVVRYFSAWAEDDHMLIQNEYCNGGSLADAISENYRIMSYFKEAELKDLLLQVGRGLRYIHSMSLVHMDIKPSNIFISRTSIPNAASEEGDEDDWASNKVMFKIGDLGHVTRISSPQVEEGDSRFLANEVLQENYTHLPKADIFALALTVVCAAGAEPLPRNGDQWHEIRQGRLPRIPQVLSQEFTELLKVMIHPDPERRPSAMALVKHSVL

| SMILES | IC50 (Wee1 kinase domain, ADP-Glo) [nM] | IC50 [1] [nM] |
| --- | --- | --- |
| C[C@@H]1CN(c2ccc(Nc3ncc4c(n3)N(c3cccc(N5C(=O)OC[C@@H]5C)n3)[C@H]3CC(C)(C)OC[C@@]43C)cc2)CCN1C (single isomer, unassigned) [Example 312] | 10 to 100 |  |
| CNCc1cccc(N2c3nc(Nc4ccc([C@H]5CCCO5)cc4)ncc3[C@@]3(C)COC(C)(C)C[C@@H]23)n1 (single isomer, unassigned) [Example 60] | < 10 |  |
| CC1(C)C[C@@H]2N(c3cccc(N=S(C)(C)=O)n3)c3nc(Nc4ccc([C@H]5CCCN5)nc4)ncc3[C@]2(C)CO1 (single isomer, unassigned) [Example 211] | 10 to 100 |  |
| CNCc1cccc(N2c3nc(Nc4ccc(N5CCCOCC5)cc4)ncc3[C@]3(C)COC(C)(C)C[C@H]23)n1 (single isomer, unassigned) [Example 17] | 100 to 1000 |  |
| C[C@H]1COC(=O)N1c1cccc(N2c3nc(Nc4ccc(N5C[C@H]6C[C@@H]5CN6C)c(F)c4)ncc3[C@]3(C)COC(C)(C)C[C@H]23)n1 (single isomer, unassigned) [Example 290] | < 10 |  |
| CNCc1cccc(N2c3nc(Nc4ccc(N5CCOCC5)c(C)c4)ncc3[C@]3(C)COC(C)(C)C[C@H]23)n1 (single isomer, unassigned) [Example 25] | 10 to 100 |  |
| C[C@H]1COC(=O)N1c1cccc(N2c3nc(Nc4ccc(N5CCCN(C)CC5)cc4)ncc3[C@]3(C)COC(C)(C)C[C@H]23)n1 (single isomer, unassigned) [Example 298] | 10 to 100 |  |
| C[C@H]1COC(=O)N1c1cccc(N2c3nc(Nc4ccc([C@H]5CCN(C)C5)cc4)ncc3[C@]3(C)COC(C)(C)C[C@H]23)n1 (single isomer, unassigned) [Example 307] | < 10 |  |
| CN1CCC[C@H]1c1ccc(Nc2ncc3c(n2)N(c2cccc(N=S(C)(C)=O)n2)[C@H]2CC(C)(C)OC[C@@]32C)cn1 (single isomer, unassigned) [Example 215] | 100 to 1000 |  |
| C[C@H]1COC(=O)N1c1cccc(N2c3nc(Nc4ccc([C@@H]5CCN(C)C5)cc4)ncc3[C@]3(C)COC(C)(C)C[C@H]23)n1 (single isomer, unassigned) [Example 304] | 10 to 100 |  |
| CN1CCC(c2ccc(Nc3ncc4c(n3)N(c3cccc(N=S(C)(C)=O)n3)[C@H]3CC(C)(C)OC[C@@]43C)cn2)CC1 (single isomer, unassigned) [Example 139] | 100 to 1000 |  |
| CN1CCN(c2ccc(Nc3ncc4c(n3)N(c3cccc(N=S(C)(C)=O)n3)[C@H]3CC(C)(C)OC[C@@]43C)cc2)CC1 [Example 99, dimethyl((6-((4bS,8aS)-4b,7,7-trimethyl-2-((4-(4-methylpiperazin-1-yl)phenyl)amino)-4b,7,8,8a-tetrahydropyrano[3′,4′:4,5]pyrrolo[2,3-d]pyrimidin-9(5H)-yl)pyridin-2-yl)imino)-16-sulfanone] | 100 to 1000 |  |
| C[C@H]1CN(c2ccc(Nc3ncc4c(n3)N(c3cccc(N5C(=O)OC[C@@H]5C)n3)[C@H]3CC(C)(C)OC[C@@]43C)cc2)CCN1C (single isomer, unassigned) [Example 314] | 10 to 100 |  |
| CNC(=O)c1ccc(Nc2ncc3c(n2)N(c2cccc(N=S(C)(C)=O)n2)[C@H]2CC(C)(C)OC[C@@]32C)cc1 (single isomer, unassigned) [Example 116] | 100 to 1000 |  |

Now from value to molecule:

| IC50 (Wee1 kinase domain, ADP-Glo) [nM] | IC50 [1] [nM] | SMILES |
| --- | --- | --- |
|  | 100 to 1000 | CN1C[C@@H]2C[C@H]1CN2c1ccc(Nc2ncc3c(n2)N(c2cccc(C4(O)CC4)n2)[C@H]2CC(C)(C)OC[C@@]32C)cc1 [Example 645, 1-(6-((4bS,8aS)-4b,7,7-trimethyl-2-((4-((1S,4S)-5-methyl-2,5-diazabicyclo[2.2.1]heptan-2-yl)phenyl)amino)-4b,7,8,8a-tetrahydropyrano[3′,4′:4,5]pyrrolo[2,3-d]pyrimidin-9(5H)-yl)pyridin-2-yl)cyclopropan-1-ol] |
|  | 10 to 100 | CC1(C)C[C@H]2N(c3cccc(C(C)(C)O)n3)c3nc(Nc4ccc(O[C@@H]5CCNC5)cc4)ncc3[C@@]2(C)CO1 (single isomer, unassigned) [Example 418] |
|  | < 10 | CN1CCN(c2ccc(Nc3ncc4c(n3)N(c3cccc(N=S(C)(C)=O)n3)[C@@H]3CC(C)(C)OC[C@]43C)cn2)CC1 (single isomer, unassigned) [Example 509] |
|  | 100 to 1000 | CN1[C@@H]2C[C@H]1CN(c1ccc(Nc3ncc4c(n3)N(c3cccc(N5CCCC5=O)n3)[C@H]3CC(C)(C)OC[C@@]43C)cc1)C2 [Example 704, 1-(6-((4bS,8aS)-4b,7,7-trimethyl-2-((4-((1R,5S)-6-methyl-3,6-diazabicyclo[3.1.1]heptan-3-yl)phenyl)amino)-4b,7,8,8a-tetrahydropyrano[3′,4′:4,5]pyrrolo[2,3-d]pyrimidin-9(5H)-yl)pyridin-2-yl)pyrrolidin-2-one] |
|  | 10 to 100 | CNCc1cccc(N2c3nc(Nc4ccc(=O)n(C)c4)ncc3[C@@]3(C)COC(C)(C)C[C@@H]23)n1 (single isomer, unassigned) [Example 462] |
|  | 10 to 100 | CC1(C)C[C@@H]2N(c3cccc(N4CCOC4=O)n3)c3nc(Nc4ccc([C@@H]5CCNC5)cc4)ncc3[C@]2(C)CO1 (single isomer, unassigned) [Example 606] |
|  | 10 to 100 | Cc1cc(Nc2ncc3c(n2)N(c2cccc(N4CCOC4=O)n2)[C@H]2CC(C)(C)OC[C@@]32C)ccc1C1CCN(C)CC1 (single isomer, unassigned) [Example 596] |
|  | 100 to 1000 | CNCc1cccc(N2c3nc(Nc4ccc(N5CCOC[C@H]5C)cc4)ncc3[C@]3(C)COC(C)(C)C[C@H]23)n1 (single isomer, unassigned) [Example 474] |
|  | 10 to 100 | CC1(C)C[C@@H]2N(c3cccc([C@H]4CNCCO4)n3)c3nc(Nc4ccc(N5CCOCC5)cc4)ncc3[C@]2(C)CO1 [Example 738, (4bS,8aS)-4b,7,7-trimethyl-9-(6-((R)-morpholin-2-yl)pyridin-2-yl)-N-(4-morpholinophenyl)-4b,5,7,8,8a,9-hexahydropyrano[3′,4′:4,5]pyrrolo[2,3-d]pyrimidin-2-amine] |
|  | ≥ 1000 | CNCc1cccc(N2c3nc(Nc4ccc(-n5ccnc5)nc4)ncc3[C@]3(C)COC(C)(C)C[C@H]23)n1 (single isomer, unassigned) [Example 467] |
|  | 10 to 100 | CC1(C)C[C@@H]2N(c3cccc(N4CCOC4=O)n3)c3nc(Nc4ccc([C@@H]5CNC[C@@H]5F)cc4)ncc3[C@]2(C)CO1 [Example 674, 3-(6-((4bS,8aS)-2-((4-((3R,4R)-4-fluoropyrrolidin-3-yl)phenyl)amino)-4b,7,7-trimethyl-4b,7,8,8a-tetrahydropyrano[3′,4′:4,5]pyrrolo[2,3-d]pyrimidin-9(5H)-yl)pyridin-2-yl)oxazolidin-2-one] |
|  | 100 to 1000 | CNCc1cccc(N2c3nc(Nc4ccc(N5CCOCC5)cc4)ncc3[C@]3(C)COCC[C@H]23)n1 (single isomer, unassigned) [Example 573] |
|  | 100 to 1000 | CC1(C)C[C@@H]2N(c3cccc(N4CCOC4=O)n3)c3nc(Nc4ccc(O[C@H]5CCNC5)cc4)ncc3[C@]2(C)CO1 [Example 612, 3-(6-((4bS,8aS)-4b,7,7-trimethyl-2-((4-(((S)-pyrrolidin-3-yl)oxy)phenyl)amino)-4b,7,8,8a-tetrahydropyrano[3′,4′:4,5]pyrrolo[2,3-d]pyrimidin-9(5H)-yl)pyridin-2-yl)oxazolidin-2-one] |
|  | 10 to 100 | CC1(C)C[C@@H]2N(c3cccc(C(C)(C)O)n3)c3nc(Nc4ccc(O[C@H]5CCNC5)cc4)ncc3[C@]2(C)CO1 (single isomer, unassigned) [Example 420] |
